Measurements published in patent US11976083B2, “Inhibitors of peptidylarginine deiminases” (Gilead Sciences, Inc., priority 2020, dated 2024).

Biological target: T1, human PAD4 (Homo sapiens, UniProt Q9UM07)
T1 construct: human PAD4 (NM_012387), A2-P663, was PCR amplified; His-SUMO (N, cleaved yes); made in house; host or cells: E. coli BL21(DE3)
Assay: In vitro PAD4 BAEE biochemical assay
Conditions: BAEE substrate 3 mM, 5 nM PAD4, 2 mM calcium chloride; geometric mean of multiple experiments
Method in brief: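 Fluorescence read-out (ex 405/em 535 nm) of isoindole formed from ammonia, o-phthalaldehyde and DTT after EDTA stop. Reaction: 5 nM PAD4, 2 mM CaCl2, 3 mM BAEE, 2 h, 25 °C, after 30 min enzyme–compound preincubation. Normalised to BB-Cl-Amidine (50 µM) and DMSO controls.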

T1 sequence (Q9UM07 2-663): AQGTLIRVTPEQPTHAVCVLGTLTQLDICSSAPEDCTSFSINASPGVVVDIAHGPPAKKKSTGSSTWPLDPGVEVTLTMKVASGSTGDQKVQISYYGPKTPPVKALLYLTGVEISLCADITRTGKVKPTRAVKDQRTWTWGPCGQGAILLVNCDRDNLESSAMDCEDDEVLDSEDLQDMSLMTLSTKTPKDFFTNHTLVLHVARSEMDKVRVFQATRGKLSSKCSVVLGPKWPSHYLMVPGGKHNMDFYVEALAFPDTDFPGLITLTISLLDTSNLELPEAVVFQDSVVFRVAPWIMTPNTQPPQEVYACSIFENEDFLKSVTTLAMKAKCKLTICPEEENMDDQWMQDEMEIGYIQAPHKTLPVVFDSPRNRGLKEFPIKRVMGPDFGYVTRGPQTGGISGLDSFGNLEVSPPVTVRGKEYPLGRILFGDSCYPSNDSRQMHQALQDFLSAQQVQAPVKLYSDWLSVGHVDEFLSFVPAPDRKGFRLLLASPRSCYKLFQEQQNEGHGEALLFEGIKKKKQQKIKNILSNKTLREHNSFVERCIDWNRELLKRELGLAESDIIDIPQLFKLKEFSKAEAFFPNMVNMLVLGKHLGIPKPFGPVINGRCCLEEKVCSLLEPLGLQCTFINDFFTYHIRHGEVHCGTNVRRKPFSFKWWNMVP

SMILES | IC50
COc1cc(C(=O)N2CCC[C@@H](N)C2)cc2nc(-c3cc4ccc5nc4n3C[C@@H]3C[C@H]3CO[C@H](C)CC(=O)N[C@@H]5C)n(C)c12 [Example 268, (5~{R},8~{R},12~{R})-18-[5-[(3~{R})-3-aminopiperidine-1-carbonyl]-7-methoxy-1-methyl-benzimidazol-2-yl]-8,12-dimethyl-7-oxa-1,11,20-triazatetracyclo[11.5.2.0^{3,5}.0^{16,19}] icosa-13(20),14,16(19),17-tetraen-10-one] | 137 nM
COc1cc(C(=O)N2CCC[C@@H](N)C2)cc2nc(-c3cc4ccc5nc4n3C[C@@H]3C[C@H]3CCCCC(=O)N[C@@H]5C)n(C)c12 [Example 269, (3~{R},5~{R},12~{R})-18-[5-[(3~{R})-3-aminopiperidine-1-carbonyl]-7-methoxy-1-methyl-benzimidazol-2-yl]-12-methyl-1,11,20-triazatetracyclo[11.5.2.0^{3,5}.0^{16,19}] icosa-13(20),14,16(19),17-tetraen-10-one] | 36 nM
COc1cc(C(=O)N2CCC[C@@H](N)C2)cc2nc(-c3cc4ccc5nc4n3C[C@@H]3C[C@H]3C(OC)CCCC(=O)N[C@@H]5C)n(C)c12 (some centres unmarked) [Example 270, (3~{R},5~{R},12~{R})-18-[5-[(3~{R})-3-aminopiperidine-1-carbonyl]-7-methoxy-1-methyl-benzimidazol-2-yl]-6-methoxy-12-methyl-1,11,20-triazatetracyclo[11.5.2.0^{3,5}.0^{16,19}] icosa-13(20),14,16(19),17-tetraen-10-one] | 90 nM
COc1cc(C(=O)N2CC[C@@H](F)[C@@H](N)C2)cc2nc(-c3cc4ccc5nc4n3CCCCCCC(C)(C)C(=O)N[C@@H]5C)n(C)c12 [Example 276, (11~{R})-17-[5-[(3~{S},4~{R})-3-amino-4-fluoro-piperidine-1-carbonyl]-7-methoxy-1-methyl-benzimidazol-2-yl]-8,8,11-trimethyl-1,10,19-triazatricyclo[10.5.2.0^{15,18}]nonadeca-12(19),13,15(18),16-tetraen-9-one] | 343 nM
COc1cc(C(=O)N2[C@H]3CC[C@@H]2[C@H](N)C3)cc2nc(-c3cc4ccc5nc4n3CCCCCCC3(CCC3)C(=O)N[C@@H]5C)n(C)c12 [Example 278, (11~{R})-17-[5-[(1~{R},2~{R},4~{S})-2-amino-7-azabicyclo[2.2.1]heptane-7-carbonyl]-7-methoxy-1-methyl-benzimidazol-2-yl]-11-methyl-spiro[1,10,19-triazatricyclo[10.5.2.0^{15,18}]nonadeca-12(19),13,15(18),16-tetraene-8,1′-cyclobutane]-9-one] | 47 nM
COc1cc(C(=O)N2CCC[C@@H](N)C2)cc2nc(-c3cc4ccc5nc4n3CCCCCCCC(=O)N[C@@H]5C)n(C)c12 [Example 282, (11~{R})-17-[5-[(3~{R})-3-aminopiperidine-1-carbonyl]-7-methoxy-1-methyl-benzimidazol-2-yl]-11-methyl-1,10,19-triazatricyclo[10.5.2.0^{15,18}]nonadeca-12(19),13,15(18),16-tetraen-9-one] | 13 nM
COc1cc(C(=O)N2[C@H]3CC[C@@H]2[C@H](N)C3)cc2nc(-c3cc4ccc5nc4n3CCCCCCCC(=O)N[C@@H]5C)n(C)c12 [Example 285, (11~{R})-17-[5-[(1~{R},2~{R},4~{S})-2-amino-7-azabicyclo[2.2.1]heptane-7-carbonyl]-7-methoxy-1-methyl-benzimidazol-2-yl]-11-methyl-1,10,19-triazatricyclo[10.5.2.0^{15,18}]nonadeca-12(19),13,15(18),16-tetraen-9-one] | 7 nM
COc1cc(C(=O)N2[C@H]3CC[C@@H]2[C@H](N)C3)cc2nc(-c3cc4ccc5nc4n3CCCCCCCCC(=O)N[C@@H]5C)n(C)c12 [Example 286, (12~{R})-18-[5-[(1~{R},2~{R},4~{S})-2-amino-7-azabicyclo[2.2.1]heptane-7-carbonyl]-7-methoxy-1-methyl-benzimidazol-2-yl]-12-methyl-1,11,20-triazatricyclo[11.5.2.0^{16,19}]icosa-13(20),14,16(19),17-tetraen-10-one] | 9 nM
COc1cc(C(=O)N2[C@H]3CC[C@@H]2[C@H](N)C3)cc2nc(-c3cc4ccc5nc4n3CCCCCCCCCC(=O)N[C@@H]5C)c(C)n12 [Example 287, (13~{R})-19-[7-[(1~{R},2~{R},4~{S})-2-amino-7-azabicyclo[2.2.1]heptane-7-carbonyl]-5-methoxy-3-methyl-imidazo[1,2-a]pyridin-2-yl]-13-methyl-1,12,21-triazatricyclo[12.5.2.0^{17,20}]henicosa-14(21),15,17(20),18-tetraen-11-one] | 55 nM
COc1cc(C(=O)N2C[C@H]3CC[C@@H]2[C@@H]3N)cc2nc(-c3cc4ccc5nc4n3CCCCCCCC(=O)N[C@@H]5C)n(C)c12 [Example 288, (11~{R})-17-[5-[(1~{R},4~{R},7~{R})-7-amino-2-azabicyclo[2.2.1]heptane-2-carbonyl]-7-methoxy-1-methyl-benzimidazol-2-yl]-11-methyl-1,10,19-triazatricyclo[10.5.2.0^{15,18}]nonadeca-12(19),13,15(18),16-tetraen-9-one] | 36 nM
COc1cc(C(=O)N2C[C@H]3CC[C@@H]2[C@@H]3N)cc2nc(-c3cc4ccc5nc4n3CCCCCCCCC(=O)N[C@@H]5C)n(C)c12 [Example 289, (12~{R})-18-[5-[(1~{R},4~{R},7~{R})-7-amino-2-azabicyclo[2.2.1]heptane-2-carbonyl]-7-methoxy-1-methyl-benzimidazol-2-yl]-12-methyl-1,11,20-triazatricyclo[11.5.2.0^{16,19}]icosa-13(20),14,16(19),17-tetraen-10-one] | 25 nM

Second part, the compound after the results:

IC50 | SMILES
65 nM | COc1cc(C(=O)N2CCC[C@@H](N)C2)cc2nc(-c3cc4ccc5nc4n3C[C@H]3C[C@@H]3COC(C)CC(=O)N[C@@H]5C)n(C)c12 (some centres unmarked) [Example 271, (3~{S},5~{S},12~{R})-18-[5-[(3~{R})-3-aminopiperidine-1-carbonyl]-7-methoxy-1-methyl-benzimidazol-2-yl]-8,12-dimethyl-7-oxa-1,11,20-triazatetracyclo[11.5.2.0^{3,5}.0^{16,19}] icosa-13(20),14,16(19),17-tetraen-10-one]
69 nM | COc1cc(C(=O)N2CCC[C@@H](N)C2)cc2nc(-c3cc4ccc5nc4n3C[C@@H]3C[C@H]3CCCC(C)C(=O)N[C@@H]5C)n(C)c12 (some centres unmarked) [Example 272, (3~{R},5~{R},12~{R})-18-[5-[(3~{R})-3-aminopiperidine-1-carbonyl]-7-methoxy-1-methyl-benzimidazol-2-yl]-9,12-dimethyl-1,11,20-triazatetracyclo[11.5.2.0^{3,5}.0^{16,19}] icosa-13(20),14,16(19),17-tetraen-10-one]
68 nM | COc1cc(C(=O)N2CCC[C@@H](N)C2)cc2nc(-c3cc4ccc5cc4n3CCC/C=C/CC(C)(C)C(=O)N[C@@H]5C)n(C)c12 [Example 273, (5˜{E},11˜{R})-17-[5-[(3˜{R})-3-aminopiperidine-1-carbonyl]-7-methoxy-1-methyl-benzimidazol-2-yl]-8,8,11-trimethyl-1,10-diazatricyclo[10.5.2.0^{15,18}]nonadeca-5,12(19),13,15(18),16-pentaen-9-one]
104 nM | COc1cc(C(=O)N2CCC[C@@H](N)C2)cc2nc(-c3cc4ccc5nc4n3C[C@@H]3C[C@H]3CCCC(C)(C)C(=O)N[C@@H]5C)n(C)c12 [Example 274, (3˜{R},5˜{R},12˜{R})-18-[5-[(3˜{R})-3-aminopiperidine-1-carbonyl]-7-methoxy-1-methyl-benzimidazol-2-yl]-9,9,12-trimethyl-1,11,20-triazatetracyclo[11.5.2.0^{3,5}.0^{16,19}]icosa-13(20),14,16(19),17-tetraen-10-one]
82 nM | COc1cc(C(=O)N2[C@H]3CC[C@@H]2[C@H](N)C3)cc2nc(-c3cc4ccc5nc4n3CCCCCCC3(CC3)C(=O)N[C@@H]5C)n(C)c12 [Example 279, (11~{R})-17-[5-[(1~{R},2~{R},4~{S})-2-amino-7-azabicyclo[2.2.1]heptane-7-carbonyl]-7-methoxy-1-methyl-benzimidazol-2-yl]-11-methyl-spiro[1,10,19-triazatricyclo[10.5.2.0^{15,18}]nonadeca-12(19),13,15(18),16-tetraene-8,1′-cyclopropane]-9-one]
64 nM | COc1cc(C(=O)N2[C@H]3CC[C@@H]2[C@H](N)C3)cc2nc(-c3cc4ccc5nc4n3CCCCCCCC3(CCC3)C(=O)N[C@@H]5C)n(C)c12 [Example 280]
88 nM | COc1cc(C(=O)N2[C@H]3CC[C@@H]2[C@H](N)C3)cc2nc(-c3cc4ccc5nc4n3CCCCCCCC3(CC3)C(=O)N[C@@H]5C)n(C)c12 [Example 281, (12~{R})-18-[5-[(1~{R},2~{R},4~{S})-2-amino-7-azabicyclo[2.2.1]heptane-7-carbonyl]-7-methoxy-1-methyl-benzimidazol-2-yl]-12-methyl-spiro[1,11,20-triazatricyclo[11.5.2.0^{16,19}]icosa-13(20),14,16(19),17-tetraene-9,1′-cyclopropane]-10-one]
13 nM | COc1cc(C(=O)N2CCC[C@@H](N)C2)cc2nc(-c3cc4ccc5nc4n3CCCCCCCCC(=O)N[C@@H]5C)n(C)c12 [Example 283, (12~{R})-18-[5-[(3~{R})-3-aminopiperidine-1-carbonyl]-7-methoxy-1-methyl-benzimidazol-2-yl]-12-methyl-1,11,20-triazatricyclo[11.5.2.0^{16,19}]icosa-13(20),14,16(19),17-tetraen-10-one]
52 nM | COc1cc(C(=O)N2CCC[C@@H](N)C2)cc2nc(-c3cc4ccc5nc4n3CCCCCCCCCC(=O)N[C@@H]5C)c(C)n12 [Example 284, (13~{R})-19-[7-[(3~{R})-3-aminopiperidine-1-carbonyl]-5-methoxy-3-methyl-imidazo[1,2-a]pyridin-2-yl]-13-methyl-1,12,21-triazatricyclo[12.5.2.0^{17,20}]henicosa-14(21),15,17(20),18-tetraen-11-one]
